Laboratory results taken from ChEMBL document CHEMBL4814022, “Enantiomeric 4'-truncated 6'-fluoro-3-deazaneplanocin and its 3-bromo derivative: Synthesis and antiviral properties, including Ebola and Marburg” (Bioorg Med Chem Lett, 2021).
Activity calls are given as the source filed them. No cut-off for these calls is given here.

Tests used:
Zaire ebolavirus = assay: Antiviral activity against Zaire ebola virus infected in African green monkey Vero cells; assay type: functional, organism-based
[1] = Cytotoxicity against African green monkey Vero cells; assay type: cell-based; conditions: chlorocebus sabaeus
[2] = Selectivity index, ratio of CC50 for African green monkey Vero cells to EC50 for antiviral activity against Ebola virus infected in African green monkey Vero cells; assay type: toxicity; conditions: read-out: Ratio CC50/EC50
Marburgvirus = assay: Antiviral activity against Marburgvirus Angola infected in African green monkey Vero cells; assay type: functional, organism-based; conditions: Orthomarburgvirus
[3] = Selectivity index, ratio of EC50 for antiviral activity against Marburgvirus Angola infected in African green monkey Vero cells to CC50 for African green monkey Vero cells; assay type: toxicity; conditions: read-out: Ratio CC50/EC50
BK polyomavirus = assay: Antiviral activity against BK polyomavirus infected in human HFF cells; assay type: functional, organism-based; conditions: Betapolyomavirus hominis
[4] = Cytotoxicity against human HFF cells; assay type: cell-based
[5] = Selectivity index, ratio of EC50 for antiviral activity against BK polyomavirus infected in human HFF cells by visible analysis to CC50 for human HFF cells; assay type: toxicity, cell-based; conditions: read-out: Ratio CC50/EC50
Chikungunya virus = assay: Antiviral activity against Chikungunya virus infected in African green monkey Vero 76 cells; assay type: functional, organism-based
dengue virus type 2 = assay: Antiviral activity against Dengue virus 2 infected in African green monkey Vero 76 cells; assay type: functional, organism-based
Rift Valley fever virus = assay: Antiviral activity against Rift Valley fever virus infected in African green monkey Vero 76 cells; assay type: functional, organism-based
Tacaribe virus = assay: Antiviral activity against Tacaribe virus infected in African green monkey Vero cells; assay type: functional, organism-based; conditions: Mammarenavirus tacaribeense
[6] = test system: Venezuelan equine encephalitis virus; assay: Antiviral activity against Venezuelan equine encephalitis virus infected in African green monkey Vero 76 cells; assay type: functional, organism-based
West Nile virus = assay: Antiviral activity against West Nile virus infected in African green monkey Vero 76 cells; assay type: functional, organism-based
Yellow fever virus = assay: Antiviral activity against Yellow fever virus infected in African green monkey Vero 76 cells; assay type: functional, organism-based
Influenza A virus = assay: Antiviral activity against Influenza A virus (H1N1) infected in dog MDCK cells; assay type: functional, organism-based
Enterovirus A71 = assay: Antiviral activity against Human enterovirus 71 infected in African green monkey Vero 76 cells; assay type: functional, organism-based
Pichinde virus = assay: Antiviral activity against Pichinde virus infected in African green monkey Vero cells; assay type: functional, organism-based
Human alphaherpesvirus 1 = assay: Antiviral activity against HSV-1 infected in human HFF cells; assay type: functional, organism-based
Lassa virus = assay: Antiviral activity against Lassa virus infected in African green monkey Vero cells; assay type: functional, organism-based; conditions: Mammarenavirus lassaense
Measles morbillivirus [7] = assay: Antiviral activity against Measles virus infected in African green monkey Vero 76 cells; assay type: functional, organism-based
Ebolavirus = assay: Antiviral activity against Ebola virus infected in African green monkey Vero 76 cells; assay type: functional, organism-based
Measles morbillivirus [8] = assay: Antiviral activity against Measles virus infected in African green monkey Vero cells by neutral red assay; assay type: functional, organism-based
[9] = Selectivity index, ratio of EC50 for antiviral activity against Measles virus infected in African green monkey Vero cells to CC50 for African green monkey Vero cells; assay type: toxicity; conditions: read-out: Ratio CC50/EC50
Norovirus = assay: Antiviral activity against Norovirus infected in human HG23 cells; assay type: functional, organism-based
[10] = Cytotoxicity against human HG23 cells; assay type: cell-based
[11] = Selectivity index, ratio of EC50 for antiviral activity against Norovirus infected in human HG23 cells by visible analysis to CC50 for human HG23 cells; assay type: toxicity, cell-based
Measles morbillivirus [12] = assay: Antiviral activity against Measles virus infected in African green monkey Vero cells by visible analysis; assay type: functional, organism-based
[13] = Selectivity index, ratio of EC50 for antiviral activity against Measles virus infected in African green monkey Vero cells by visible analysis to CC50 for African green monkey Vero cells; assay type: toxicity; conditions: read-out: Ratio CC50/EC50
[14] = test system: Japanese encephalitis virus; assay: Antiviral activity against Japanese encephalitis virus infected in African green monkey Vero 76 cells; assay type: functional, organism-based
Punta Toro virus = assay: Antiviral activity against Punta Toro virus infected in African green monkey Vero 76 cells; assay type: functional, organism-based
Human adenovirus 5 = assay: Antiviral activity against Human adenovirus 5 infected in human A549 cells; assay type: functional, organism-based
Junin virus = assay: Antiviral activity against Junin virus infected in African green monkey Vero cells; assay type: functional, organism-based; conditions: Mammarenavirus juninense
Murine norovirus = assay: Antiviral activity against Murine norovirus infected in mouse RAW264.7 cells; assay type: functional, organism-based
Hepatitis B virus = assay: Antiviral activity against Hepatitis B virus infected in human HepG2.2.15 cells; assay type: functional, organism-based

For `NC(=O)c1nc(F)cnc1O` [FAVIPIRAVIR], the EC50 (Zaire ebolavirus) was 66 µM, the CC50 [1] was > 1000 µM and the selectivity ratio [2] was 15. For the same compound, the EC50 (Marburgvirus) was 155 µM and the selectivity ratio [3] was > 6.5.
With `Nc1ncc(Br)c2c1ncn2[C@H]1C(F)=C[C@H](O)[C@@H]1O` the EC50 (BK polyomavirus) was 34.5 µM, the EC90 (BK polyomavirus) was 145 µM and the CC50 [4] was > 150 µM. The selectivity ratio [5] was > 4, the Activity (Chikungunya virus) was “inactive” and the Activity (dengue virus type 2) was “inactive”. The Activity (Rift Valley fever virus) was “inactive”, the Activity (Tacaribe virus) was “inactive” and the Activity [6] was “inactive”. The Activity (West Nile virus) was “inactive”, the Activity (Yellow fever virus) was “inactive” and the Activity (Influenza A virus) was “inactive”. For the same compound, the Activity (Enterovirus A71) was “inactive”, the Activity (Pichinde virus) was “inactive” and the Activity (Human alphaherpesvirus 1) was “inactive”. The Activity (Lassa virus) was “inactive”, the Activity (Measles morbillivirus [7]) was “inactive” and the Activity (Ebolavirus) was “inactive”.
For `Nc1ccn([C@@H]2O[C@H](CO)[C@@H](O)[C@H]2F)c(=O)n1`, the EC50 (Measles morbillivirus [8]) was 1.1 µM and the selectivity ratio [9] was > 91.
For `C[C@@]1(O)[C@H](O)[C@@H](CO)O[C@H]1n1ccc(N)nc1=O`, the EC50 (Norovirus) was 6.4 µM, the CC50 [10] was > 300 µM and the selectivity ratio [11] was > 47.
For `Nc1nccc2c1ncn2[C@@H]1C(F)=C[C@@H](O)[C@H]1O`, the EC50 (Zaire ebolavirus) was 0.12 µM, the CC50 [1] was ≥ 14 µM and the selectivity ratio [2] was 117. It also gave an EC50 (Marburgvirus) of 0.52 µM, a selectivity ratio [3] of 27 and an EC50 (Measles morbillivirus [8]) of 3.6 µM. The selectivity ratio [9] was 36, the EC50 (Measles morbillivirus [12]) was 4.2 µM and the selectivity ratio [13] was 10. For the same compound, the EC50 (Norovirus) was 2.7 µM, the CC50 [10] was > 100 µM and the selectivity ratio ([11]; read-out: Ratio CC50/EC50) was > 37. The Activity (Chikungunya virus) was “inactive”, the Activity (dengue virus type 2) was “inactive” and the Activity [14] was “inactive”. For the same compound, the Activity (Punta Toro virus) was “inactive”, the Activity (Rift Valley fever virus) was “inactive” and the Activity (Tacaribe virus) was “inactive”. For the same compound, the Activity [6] was “inactive”, the Activity (West Nile virus) was “inactive” and the Activity (Yellow fever virus) was “inactive”. For the same compound, the Activity (Human adenovirus 5) was “inactive”, the Activity (Influenza A virus) was “inactive” and the Activity (Enterovirus A71) was “inactive”. For the same compound, the Activity (Junin virus) was “inactive”, the Activity (Pichinde virus) was “inactive” and the Activity (Murine norovirus) was “inactive”. The Activity (Hepatitis B virus) was “inactive”.
With `Nc1nccc2c1ncn2[C@H]1C(F)=C[C@H](O)[C@@H]1O` the EC50 (BK polyomavirus) was 23 µM, the CC50 [4] was > 150 µM and the selectivity ratio [5] was > 7. For the same compound, the Activity (Chikungunya virus) was “inactive”, the Activity (dengue virus type 2) was “inactive” and the Activity (Rift Valley fever virus) was “inactive”. For the same compound, the Activity (Tacaribe virus) was “inactive”, the Activity [6] was “inactive” and the Activity (West Nile virus) was “inactive”. The Activity (Yellow fever virus) was “inactive”, the Activity (Influenza A virus) was “inactive” and the Activity (Enterovirus A71) was “inactive”. For the same compound, the Activity (Pichinde virus) was “inactive”, the Activity (Human alphaherpesvirus 1) was “inactive” and the Activity (Lassa virus) was “inactive”. For the same compound, the Activity (Measles morbillivirus [7]) was “inactive” and the Activity (Ebolavirus) was “inactive”.
In the case of `Nc1ncc(Br)c2c1ncn2[C@@H]1C(F)=C[C@@H](O)[C@H]1O`, the EC50 (Zaire ebolavirus) is reported as 0.11 µM, the CC50 [1] is reported as ≥ 9.5 µM and the selectivity ratio [2] is reported as 381. It also gave an EC50 (Marburgvirus) of 0.1 µM, a selectivity ratio [3] of 420 and an EC50 (Measles morbillivirus [8]) of 1.2 µM. It also gave a selectivity ratio [9] of 7.9, an EC50 (Measles morbillivirus [12]) of 1.8 µM and a selectivity ratio [13] of 6.7. The EC50 (Norovirus) was 6.4 µM, the CC50 [10] was > 100 µM and the selectivity ratio ([11]; read-out: Ratio CC50/EC50) was > 16. For the same compound, the Activity (Chikungunya virus) was “inactive”, the Activity (dengue virus type 2) was “inactive” and the Activity [14] was “inactive”. For the same compound, the Activity (Punta Toro virus) was “inactive”, the Activity (Rift Valley fever virus) was “inactive” and the Activity (Tacaribe virus) was “inactive”. The Activity [6] was “inactive”, the Activity (West Nile virus) was “inactive” and the Activity (Yellow fever virus) was “inactive”. For the same compound, the Activity (Human adenovirus 5) was “inactive”, the Activity (Influenza A virus) was “inactive” and the Activity (Enterovirus A71) was “inactive”. The Activity (Junin virus) was “inactive”, the Activity (Pichinde virus) was “inactive” and the Activity (Murine norovirus) was “inactive”. For the same compound, the Activity (Hepatitis B virus) was “inactive”.
